Columns and labels:
Type in all cases: in vivo
corn = assay: Test Example-4: phytotoxicity by a foliage treatment after weeds are generated under upland field conditions; conditions: 500 g a.i/ha, foliage treatment after emergence, about 14 days after treatment, score 0-5
Excerpt: (§1) Using the formulation prepared according to the methods described above, the herbicidal effect of the bicyclic pyrazolinone derivative of the invention according to the methods shown in Test Examples below was examined. The herbicidal effect with respect to the test weeds or the phytotoxicity with respect to the test crops was examined according to the following criteria, and evaluated in six stage scores of 0 to 5. A vat having an area of 65 cm^2 and a depth of 2 cm was filled with upland soil, then, seeds of Amaranthus viridis (green amaranthus), Abutilon theophrasti (velvetleaf), Chenopodium album (common lambsquarters), […]. While watering was suitably performed on there, the seeds were grown for 14 days. A wettable powder or an emulsifiable concentrate of the compound of the present invention prepared according to Formulation Example was diluted, and a spray treatment was uniformly performed on the foliage portion of the plant so as to be a predetermined dosage in the amount of water of 4000 L per hectare. The herbicidal effect with respect to the test weeds and the phytotoxicity with respect to corn about 14 days after the treatment were evaluated according to the evaluation criteria in six stages of 0 to 5 described above.

[1] = system: Abutilon theophrasti (velvetleaf); assay: Test Example-4: herbicidal effect by a foliage treatment after weeds are generated under upland field conditions; conditions: 500 g a.i/ha, foliage treatment after emergence, about 14 days after treatment, score 0-5
Excerpt: as §1

[2] = system: Amaranthus viridis (green amaranthus); assay: as above; conditions: 500 g a.i/ha, foliage treatment after emergence, about 14 days after treatment, score 0-5
Excerpt: as §1

[3] = system: Chenopodium album (common lambsquarters); assay: as above; conditions: 500 g a.i/ha, foliage treatment after emergence, about 14 days after treatment, score 0-5
Excerpt: as §1

[4] = system: Echinochloa oryzicola (barnyard grass); assay: Test Example-1: herbicidal effect by a treatment before weeds are generated under submerged conditions; conditions: 500 g a.i/ha, pre-emergence treatment, about 15 days after treatment, score 0-5
How it was run: (§2)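 Flooded paddy-soil cups, seeded and treated by submersion application on sowing day; rated 0–5 ~15 d later.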

[5] = system: Eleocharis acicularis (needle spikerush); assay: as above; conditions: 500 g a.i/ha, pre-emergence treatment, about 15 days after treatment, score 0-5
How it was run: as §2

[6] = system: Monochoria vaginalis (monochoria); assay: as above; conditions: 500 g a.i/ha, pre-emergence treatment, about 15 days after treatment, score 0-5
How it was run: as §2

[7] = system: Cyperus difformis (smallflower umbrella plant); assay: as above; conditions: 500 g a.i/ha, pre-emergence treatment, about 15 days after treatment, score 0-5
How it was run: as §2

[8] = system: other annual broad leaf weeds (Lindernia procumbens, Rotala indica, Elatine triandra); assay: as above; conditions: 500 g a.i/ha, pre-emergence treatment, about 15 days after treatment, score 0-5
How it was run: as §2

[9] = system: Scirpus juncoides (bulrush); assay: as above; conditions: 500 g a.i/ha, pre-emergence treatment, about 15 days after treatment, score 0-5
How it was run: as §2

SMILES | Phytotoxicity Corn (corn) | Herbicidal effect Abutilon theophrast [1] | Herbicidal effect Amaranthus viridis [2] | Herbicidal effect Chenopodium album [3] | Herbicidal effect Echinochloa oryzicola [4] | Herbicidal effect Eleocharis acicularis [5] | Herbicidal effect Monochoria vaginalis [6] | Herbicidal effect Cyperus difformis [7] | Herbicidal effect Broadleaf weed [8] | Herbicidal effect Scirpus juncoides [9]
CCS(=O)(=O)Nc1cc(-c2c(Cl)n3n(c2=O)CCCC3)c(F)cc1Cl [Example 5-51] | 0 (Herbicidal effect/phytotoxicity was 0% to 10%) | 5 (Herbicidal effect/phytotoxicity was 90% or greater) | 5 (Herbicidal effect/phytotoxicity was 90% or greater) | 5 (Herbicidal effect/phytotoxicity was 90% or greater) |  |  |  |  |  | 
CCOC(=O)C=C(COc1cc(-c2c(Cl)n3n(c2=O)CCCC3)c(F)cc1Cl)OC (mixture of isomers) [Example 2-14] | 0 (Herbicidal effect/phytotoxicity was 0% to 10%) | 5 (Herbicidal effect/phytotoxicity was 90% or greater) | 5 (Herbicidal effect/phytotoxicity was 90% or greater) | 5 (Herbicidal effect/phytotoxicity was 90% or greater) |  |  |  |  |  | 
C=CCOc1cccc(Oc2cc(-c3c(Cl)n4n(c3=O)CCCC4)c(F)cc2Cl)c1 [Example 3-28] | 0 (Herbicidal effect/phytotoxicity was 0% to 10%) | 5 (Herbicidal effect/phytotoxicity was 90% or greater) | 5 (Herbicidal effect/phytotoxicity was 90% or greater) | 5 (Herbicidal effect/phytotoxicity was 90% or greater) |  |  |  |  |  | 
CC1(COc2cc(-c3c(Cl)n4n(c3=O)CCCC4)c(F)cc2Cl)CC(c2ccc(F)cc2Cl)=NO1 (centres unmarked) [Example 4-11] | 2 (Herbicidal effect/phytotoxicity was 30% to 50%) | 5 (Herbicidal effect/phytotoxicity was 90% or greater) | 5 (Herbicidal effect/phytotoxicity was 90% or greater) | 5 (Herbicidal effect/phytotoxicity was 90% or greater) |  |  |  |  |  | 
COc1cc(-c2c(Cl)n3n(c2=O)CCCCC3)c(F)cc1Cl [Example 1-141] | 0 (Herbicidal effect/phytotoxicity was 0% to 10%) | 5 (Herbicidal effect/phytotoxicity was 90% or greater) | 5 (Herbicidal effect/phytotoxicity was 90% or greater) | 5 (Herbicidal effect/phytotoxicity was 90% or greater) |  |  |  |  |  | 
O=c1c(-c2cc(Oc3cccc(O)c3)c(Cl)cc2F)c(Cl)n2n1CCCC2 [Compound 3-4] |  |  |  |  | 5 (Herbicidal effect/phytotoxicity was 90% or greater) | 5 (Herbicidal effect/phytotoxicity was 90% or greater) | 5 (Herbicidal effect/phytotoxicity was 90% or greater) | 5 (Herbicidal effect/phytotoxicity was 90% or greater) | 5 (Herbicidal effect/phytotoxicity was 90% or greater) | 5 (Herbicidal effect/phytotoxicity was 90% or greater)
O=c1c(-c2cc(OCC3CCCC3)c(Cl)cc2F)c(Cl)n2n1CCCC2 [Example 1-186] |  |  |  |  | 5 (Herbicidal effect/phytotoxicity was 90% or greater) | 5 (Herbicidal effect/phytotoxicity was 90% or greater) | 5 (Herbicidal effect/phytotoxicity was 90% or greater) | 5 (Herbicidal effect/phytotoxicity was 90% or greater) | 5 (Herbicidal effect/phytotoxicity was 90% or greater) | 5 (Herbicidal effect/phytotoxicity was 90% or greater)
COC(=O)C=C(COc1cc(-c2c(Cl)n3n(c2=O)CCCC3)c(Cl)cc1Cl)OC (mixture of isomers) [Compound 2-5] |  |  |  |  | 5 (Herbicidal effect/phytotoxicity was 90% or greater) | 5 (Herbicidal effect/phytotoxicity was 90% or greater) | 5 (Herbicidal effect/phytotoxicity was 90% or greater) | 5 (Herbicidal effect/phytotoxicity was 90% or greater) | 5 (Herbicidal effect/phytotoxicity was 90% or greater) | 5 (Herbicidal effect/phytotoxicity was 90% or greater)
O=c1c(-c2cc(Oc3cccnc3[N+](=O)[O-])c(Cl)cc2F)c(Cl)n2n1CCCC2 [Example 1-386] |  |  |  |  | 5 (Herbicidal effect/phytotoxicity was 90% or greater) | 5 (Herbicidal effect/phytotoxicity was 90% or greater) | 5 (Herbicidal effect/phytotoxicity was 90% or greater) | 5 (Herbicidal effect/phytotoxicity was 90% or greater) | 5 (Herbicidal effect/phytotoxicity was 90% or greater) | 5 (Herbicidal effect/phytotoxicity was 90% or greater)
C#CC(C)Oc1ccccc1Oc1cc(-c2c(Cl)n3n(c2=O)CCCC3)c(F)cc1Cl (centres unmarked) [Compound 3-31] |  |  |  |  | 5 (Herbicidal effect/phytotoxicity was 90% or greater) | 5 (Herbicidal effect/phytotoxicity was 90% or greater) | 5 (Herbicidal effect/phytotoxicity was 90% or greater) | 5 (Herbicidal effect/phytotoxicity was 90% or greater) | 5 (Herbicidal effect/phytotoxicity was 90% or greater) | 5 (Herbicidal effect/phytotoxicity was 90% or greater)
CC(C)Oc1ccc(Oc2cc(-c3c(Cl)n4n(c3=O)CCCC4)c(F)cc2Cl)cc1 [Compound 3-13] |  |  |  |  | 5 (Herbicidal effect/phytotoxicity was 90% or greater) | 5 (Herbicidal effect/phytotoxicity was 90% or greater) | 5 (Herbicidal effect/phytotoxicity was 90% or greater) | 5 (Herbicidal effect/phytotoxicity was 90% or greater) | 5 (Herbicidal effect/phytotoxicity was 90% or greater) | 5 (Herbicidal effect/phytotoxicity was 90% or greater)
O=c1c(-c2ccc(Cl)cc2F)c(Cl)n2n1CCOCC2 [Example 1-129] |  |  |  |  | 5 (Herbicidal effect/phytotoxicity was 90% or greater) | 5 (Herbicidal effect/phytotoxicity was 90% or greater) | 5 (Herbicidal effect/phytotoxicity was 90% or greater) | 5 (Herbicidal effect/phytotoxicity was 90% or greater) | 5 (Herbicidal effect/phytotoxicity was 90% or greater) | 5 (Herbicidal effect/phytotoxicity was 90% or greater)
COC(=O)C(C)Oc1cc(-c2c(Cl)n3n(c2=O)CCCC3)c(F)cc1Cl (centres unmarked) [Example 1-166] |  |  |  |  | 5 (Herbicidal effect/phytotoxicity was 90% or greater) | 5 (Herbicidal effect/phytotoxicity was 90% or greater) | 5 (Herbicidal effect/phytotoxicity was 90% or greater) | 5 (Herbicidal effect/phytotoxicity was 90% or greater) | 5 (Herbicidal effect/phytotoxicity was 90% or greater) | 5 (Herbicidal effect/phytotoxicity was 90% or greater)
COC(=O)C(Cl)Cc1cc(-c2c(Cl)n3n(c2=O)CCCC3)c(F)cc1Cl (centres unmarked) [Example 1-257] |  |  |  |  | 5 (Herbicidal effect/phytotoxicity was 90% or greater) | 5 (Herbicidal effect/phytotoxicity was 90% or greater) | 5 (Herbicidal effect/phytotoxicity was 90% or greater) | 5 (Herbicidal effect/phytotoxicity was 90% or greater) | 5 (Herbicidal effect/phytotoxicity was 90% or greater) | 5 (Herbicidal effect/phytotoxicity was 90% or greater)
C#CCN(C)c1cc(-c2c(Cl)n3n(c2=O)CCCC3)c(F)cc1Cl [Example 5-68] |  |  |  |  | 5 (Herbicidal effect/phytotoxicity was 90% or greater) | 5 (Herbicidal effect/phytotoxicity was 90% or greater) | 5 (Herbicidal effect/phytotoxicity was 90% or greater) | 5 (Herbicidal effect/phytotoxicity was 90% or greater) | 5 (Herbicidal effect/phytotoxicity was 90% or greater) | 5 (Herbicidal effect/phytotoxicity was 90% or greater)
O=c1c(-c2cc(OC3C=CCCC3)c(Cl)cc2F)c(Cl)n2n1CCCC2 (centres unmarked) [Example 1-232] |  |  |  |  | 5 (Herbicidal effect/phytotoxicity was 90% or greater) | 5 (Herbicidal effect/phytotoxicity was 90% or greater) | 5 (Herbicidal effect/phytotoxicity was 90% or greater) | 5 (Herbicidal effect/phytotoxicity was 90% or greater) | 5 (Herbicidal effect/phytotoxicity was 90% or greater) | 5 (Herbicidal effect/phytotoxicity was 90% or greater)

Source: patent publication US9580444B2, “Polycyclic pyrazolinone derivative and herbicide comprising same as effective component thereof” (priority 2013, dated 2017)
